Measurements taken from article PMC9653733, “Characterization of a Potent, Selective, and Safe Inhibitor, Ac15(Az8)2, in Reversing Multidrug Resistance Mediated by Breast Cancer Resistance Protein (BCRP/ABCG2)” (International Journal of Molecular Sciences, 2022).
Values joined by “and” are separate entries in the source; they are usually repeats but may differ in a detail not shown here. Identical values can stand only once.

Columns and labels:
S1 cells = assay: Cytotoxicity of anticancer drugs in parental S1 (0.1% DMSO); assay type: cell-based, human
S1M180 cells = assay: Cytotoxicity of anticancer drugs in S1M180 (0.1% DMSO); assay type: cell-based, human
Method: In total, 6500 cells of S1M180 or MCF7-MX100 were incubated with various doses of topotecan or DOX and modulators. The final volume in each well of 96-well plates was 200 µL. The plates were then incubated for 5 days at 37 °C. The CellTiter 96 AQueous Assay (Promega) was used to measure cell proliferation. According to the manufacturer’s instructions, MTS (2 mg/mL) and PMS (0.92 mg/mL) were mixed in a ratio of 20:1. An aliquot (10 μL) of the freshly prepared MTS/PMS mixture was added into each well, and the plate was incubated for 2 h at 37 °C. Optical absorbance at 490 nm was then recorded with microplate absorbance reader (Bio-Rad). IC50 values were calculated from the dose-response curves of MTS assays (Prism 4.0).

BCRP (S1M180 cells) = target: T1, BCRP (S1M180 cells) (Homo sapiens, UniProt Q9UNQ0, R482G); assay: Drug accumulation assay in S1M180; assay type: cell-based; details: 20 µM DOX, 1 h; p < 0.001
T1 construct: endogenous in cells; host or cells: S1M180 (human colon carcinoma, mitoxantrone-selected)
T1 sequence (Q9UNQ0 1-655 R482G): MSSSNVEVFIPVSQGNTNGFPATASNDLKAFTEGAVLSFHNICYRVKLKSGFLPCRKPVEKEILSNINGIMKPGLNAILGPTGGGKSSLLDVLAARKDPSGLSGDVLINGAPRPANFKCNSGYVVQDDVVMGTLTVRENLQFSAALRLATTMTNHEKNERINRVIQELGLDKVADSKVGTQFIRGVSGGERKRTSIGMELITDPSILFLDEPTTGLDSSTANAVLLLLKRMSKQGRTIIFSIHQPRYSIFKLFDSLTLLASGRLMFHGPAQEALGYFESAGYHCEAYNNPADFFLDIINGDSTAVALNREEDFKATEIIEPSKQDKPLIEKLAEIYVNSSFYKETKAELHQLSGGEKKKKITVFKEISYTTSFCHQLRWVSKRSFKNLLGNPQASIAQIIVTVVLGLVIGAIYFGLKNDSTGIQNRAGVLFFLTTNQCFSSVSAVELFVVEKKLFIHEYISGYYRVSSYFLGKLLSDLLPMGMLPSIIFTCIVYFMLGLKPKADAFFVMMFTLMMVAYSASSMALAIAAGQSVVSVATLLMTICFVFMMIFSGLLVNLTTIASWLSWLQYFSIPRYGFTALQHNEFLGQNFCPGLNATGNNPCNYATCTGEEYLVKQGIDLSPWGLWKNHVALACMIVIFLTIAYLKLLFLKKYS
Method: Figure 2 Effect of Ac15(Az8)2 on intracellular accumulation of BCRP-substrates in S1 and S1M180 cells. Cells were pre-treated with 0.1% DMSO, 100 nM, or 1000 nM Ac15(Az8)2 and then incubated with BCRP substrates. (A) Topotecan accumulation. (B) DOX accumulation. The intracellular level of drug after treatment was normalized to that of S1 cells after incubating with 0.1% DMSO. Student unpaired two-tailed t-test was conducted as indicated (** p < 0.01, *** p < 0.001). (C) To measure DOX efflux, S1M180 cells were pre-incubated with medium containing 20 μM DOX for 1 h at 37 °C. Cells were then washed and further incubated with or without 1 µM of Ac15(Az8)2. At 0, 5, 10, 30, 60, 120, and 180 min, the cells were harvested to measure the intracellular DOX level. (D) To determine intracellular Ac15(Az8)2 concentration, 1 × 10^7 cells were incubated with 1 µM of Ac15(Az8)2 at 37 °C for 2 h. Cells were then washed with ice-cold PBS. To the cell pellet, acetonitrile was added to lyse the cells, and the supernatant was saved for Ac15(Az8)2 determination using UPLC–MS/MS.
Briefly, 1 × 10^6 cells of S1 and S1M180 cells were pre-incubated with 100 nM or 1000 nM Ac15(Az8)2 for 2 h and followed by 50 µM of topotecan or 20 µM of DOX for 1-h incubation. DMSO at 0.1% was used as a negative control. After incubation, the cells were spun down and washed with cold PBS, pH7.4 for 2 times and lysed with 100 μL of lysis buffer (0.75 M HCl, 0.2% Triton-X100 in isopropanol) with vigorous vortex. The lysate was further incubated at 37 °C for 20 min. After incubation, the lysate was spun down, and 100 μL of supernatant was saved and seeded into a black 96-well microtiter plate. The fluorescence level of DOX was determined by a fluorescence microplate reader (BMG Technologies) using excitation and an emission wavelength pair of 460 nm and 610 nm.

L929 = details: normal mouse fibroblast cells; mean ± S.D.; ref [42]; read-out: IC50 towards L929; cited from earlier work
BCRP (MCF7-MX100 cells) = details: concentration reducing IC50 of anticancer drug by half; mean ± S.D.; ref [42]; read-out: EC50 needed for reversing BCRP-mediated topotecan resistance, MCF7-MX100; cited from earlier work
MRP1 (2008/MRP1 cells) = details: mean ± S.D.; ref [42]; read-out: EC50 needed for reversing MRP1-mediated DOX resistance, 2008/MRP1; cited from earlier work

DOX accumulation in S1M180, fold less than parental S1 (BCRP (S1M180 cells)) | SMILES | IC50 (S1 cells; Homo sapiens, S1 + 0.1% DMSO, mean ± S.D., n = 3, read-out: IC50 of DOX) | RF (Relative Fold), DOX: resistance of S1M180 compared to parental S1 (S1 cells; S1 + 0.1% DMSO vs S1M180 + 0.1% DMSO) | IC50 (S1M180 cells; Homo sapiens, S1-M1-80, S1M180 + 0.1% DMSO, mean ± S.D., n = 3, read-out: IC50 of DOX) | RF (Relative Fold), DOX (S1M180 cells; S1M180 + 0.1% DMSO (reference)) | IC50 (L929) | EC50 (BCRP (MCF7-MX100 cells)) | EC50 (MRP1 (2008/MRP1 cells))
~4.6 fold | COc1cccc2c1C(=O)c1c(O)c3c(c(O)c1C2=O)C[C@@](O)(C(=O)CO)C[C@@H]3O[C@H]1C[C@H](N)[C@H](O)[C@H](C)O1 [DOX, doxorubicin] | 100 ± 20 nM | 133.7 | 13.4 µM | 1.0 |  |  | 
 | COc1ccc2c3c([nH]c2c1)[C@H](CC(C)C)N1C(=O)[C@H](CCC(=O)OC(C)(C)C)NC(=O)[C@@H]1C3 [Ko143, reference compound] |  |  |  |  | 29 µM and 29.2 µM | […] | 1950 ± 354 nM
